Reference: the NIST ThermoML archive (doi:10.1016/j.tca.2005.08.034)

Assays:
[1] = 298.15 K; for surface tension liquid-gas: Drop volume; for speed of sound / mass density: 101.33 kPa, Liquid; for mass density: Vibrating tube method
[2] = refractive index (Na D-line) (dimensionless); conditions: 298.15 K; 101.33 kPa; Liquid; refractometer
[3] = excess molar enthalpy (molar enthalpy of mixing); xn = mol fraction of the nth substance listed; conditions: 298.15 K, 101.3 kPa, Liquid, Flow calorimetry
[4] = refractive index (Na D-line) (dimensionless); φn = volume fraction of the nth substance listed; conditions: 298.15 K, 101.3 kPa, Liquid, refractometer
[5] = xn = mol fraction of the nth substance listed; conditions: 298.15 K; for surface tension liquid-gas: Drop volume; for mass density / speed of sound: 101.3 kPa, Liquid; for mass density: Vibrating tube method

CC1CCCO1 (stereo unspecified) [2-methyltetrahydrofuran]
Conditions	mass density [kg/m3]	refractive index	speed of sound [m/s]	surface tension liquid-gas [mN/m]
[1]	849.2	–	1202.8	24.68
[2]	–	1.40287	–	–

CC1CCCO1 (stereo unspecified) [2-methyltetrahydrofuran] + Clc1ccccc1
Conditions	excess molar enthalpy [kcal/mol]	mass density [kg/m3]	refractive index	speed of sound [m/s]	surface tension liquid-gas [mN/m]
[3], x1 = 0.058	-0.0203	–	–	–	–
[3], x1 = 0.105	-0.0402	–	–	–	–
[3], x1 = 0.198	-0.0793	–	–	–	–
[3], x1 = 0.294	-0.114	–	–	–	–
[3], x1 = 0.391	-0.137	–	–	–	–
[3], x1 = 0.488	-0.15	–	–	–	–
[3], x1 = 0.585	-0.149	–	–	–	–
[3], x1 = 0.683	-0.137	–	–	–	–
[3], x1 = 0.784	-0.107	–	–	–	–
[3], x1 = 0.883	-0.0626	–	–	–	–
[3], x1 = 0.932	-0.0394	–	–	–	–
[4], φ1 = 0.0479	–	–	1.5165	–	–
[4], φ1 = 0.0961	–	–	1.5112	–	–
[4], φ1 = 0.1979	–	–	1.49985	–	–
[4], φ1 = 0.2981	–	–	1.48853	–	–
[4], φ1 = 0.3966	–	–	1.47724	–	–
[4], φ1 = 0.5008	–	–	1.46501	–	–
[4], φ1 = 0.5987	–	–	1.45323	–	–
[4], φ1 = 0.7006	–	–	1.44079	–	–
[4], φ1 = 0.8014	–	–	1.4283	–	–
[4], φ1 = 0.9043	–	–	1.41518	–	–
[4], φ1 = 0.9492	–	–	1.40941	–	–
[5], x1 = 0.0378	–	1092.14	–	1266.6	–
[5], x1 = 0.0483	–	–	–	–	32.6
[5], x1 = 0.0969	–	–	–	–	32.19
[5], x1 = 0.0995	–	1077.75	–	1264.3	–
[5], x1 = 0.1875	–	1056.86	–	1261.1	–
[5], x1 = 0.1993	–	–	–	–	31.31
[5], x1 = 0.2987	–	1030.2	–	1256.5	–
[5], x1 = 0.2999	–	–	–	–	30.45
[5], x1 = 0.3922	–	1007.36	–	1251.9	–
[5], x1 = 0.3988	–	–	–	–	29.61
[5], x1 = 0.4947	–	981.73	–	1246.3	–
[5], x1 = 0.503	–	–	–	–	28.74
[5], x1 = 0.5973	–	955.71	–	1239.9	–
[5], x1 = 0.6008	–	–	–	–	27.92
[5], x1 = 0.6435	–	943.88	–	1236.6	–
[5], x1 = 0.7024	–	–	–	–	27.09
[5], x1 = 0.8003	–	902.98	–	1223.5	–
[5], x1 = 0.8028	–	–	–	–	26.27
[5], x1 = 0.9051	–	–	–	–	25.44
[5], x1 = 0.9074	–	874.39	–	1212.9	–
[5], x1 = 0.9393	–	865.76	–	1209.6	–
[5], x1 = 0.9496	–	–	–	–	25.08

CC1CCCO1 (stereo unspecified) [2-methyltetrahydrofuran] + c1ccccc1
Conditions	excess molar enthalpy [kcal/mol]	mass density [kg/m3]	refractive index	speed of sound [m/s]	surface tension liquid-gas [mN/m]
[3], x1 = 0.054	-0.00526	–	–	–	–
[3], x1 = 0.097	-0.011	–	–	–	–
[3], x1 = 0.188	-0.0232	–	–	–	–
[3], x1 = 0.279	-0.033	–	–	–	–
[3], x1 = 0.377	-0.0409	–	–	–	–
[3], x1 = 0.494	-0.0449	–	–	–	–
[3], x1 = 0.575	-0.0464	–	–	–	–
[3], x1 = 0.679	-0.0423	–	–	–	–
[3], x1 = 0.783	-0.0332	–	–	–	–
[3], x1 = 0.89	-0.0196	–	–	–	–
[3], x1 = 0.944	-0.0108	–	–	–	–
[4], φ1 = 0.0603	–	–	1.49204	–	–
[4], φ1 = 0.1086	–	–	1.48747	–	–
[4], φ1 = 0.2167	–	–	1.47724	–	–
[4], φ1 = 0.331	–	–	1.46642	–	–
[4], φ1 = 0.4263	–	–	1.4574	–	–
[4], φ1 = 0.5289	–	–	1.44769	–	–
[4], φ1 = 0.6273	–	–	1.43835	–	–
[4], φ1 = 0.7294	–	–	1.42866	–	–
[4], φ1 = 0.8223	–	–	1.41981	–	–
[4], φ1 = 0.9137	–	–	1.41109	–	–
[4], φ1 = 0.9587	–	–	1.40681	–	–
[5], x1 = 0.0456	–	872.27	–	1295.7	–
[5], x1 = 0.0536	–	–	–	–	28.33
[5], x1 = 0.0971	–	–	–	–	28.15
[5], x1 = 0.0981	–	871	–	1290.9	–
[5], x1 = 0.1962	–	–	–	–	27.74
[5], x1 = 0.1987	–	868.57	–	1281.6	–
[5], x1 = 0.2996	–	866.21	–	1271.8	–
[5], x1 = 0.3039	–	–	–	–	27.3
[5], x1 = 0.395	–	863.99	–	1263	–
[5], x1 = 0.396	–	–	–	–	26.92
[5], x1 = 0.4976	–	–	–	–	26.51
[5], x1 = 0.4979	–	861.47	–	1253.1	–
[5], x1 = 0.5949	–	859.05	–	1243.6	–
[5], x1 = 0.5976	–	–	–	–	26.12
[5], x1 = 0.6798	–	856.87	–	1235.1	–
[5], x1 = 0.704	–	–	–	–	25.71
[5], x1 = 0.7992	–	853.68	–	1222.7	–
[5], x1 = 0.8033	–	–	–	–	25.36
[5], x1 = 0.896	–	851.23	–	1212.7	–
[5], x1 = 0.9034	–	–	–	–	25.01
[5], x1 = 0.9486	–	850.1	–	1207.5	–
[5], x1 = 0.9535	–	–	–	–	24.84

c1ccccc1 [benzene]
Conditions	mass density [kg/m3]	refractive index	speed of sound [m/s]	surface tension liquid-gas [mN/m]
[1]	873.39	–	1299.2	28.57
[2]	–	1.49774	–	–

Clc1ccccc1 [chlorobenzene]
Conditions	mass density [kg/m3]	refractive index	speed of sound [m/s]	surface tension liquid-gas [mN/m]
[1]	1100.94	–	1267.9	33
[2]	–	1.52176	–	–

Fc1ccccc1 [fluorobenzene]
Conditions	mass density [kg/m3]	refractive index	speed of sound [m/s]	surface tension liquid-gas [mN/m]
[1]	1018.79	–	1166	27.43
[2]	–	1.4629	–	–

Fc1ccccc1 [fluorobenzene] + CC1CCCO1
Conditions	excess molar enthalpy [kcal/mol]	mass density [kg/m3]	refractive index	speed of sound [m/s]	surface tension liquid-gas [mN/m]
[3], x2 = 0.056	-0.0191	–	–	–	–
[3], x2 = 0.101	-0.0373	–	–	–	–
[3], x2 = 0.195	-0.0746	–	–	–	–
[3], x2 = 0.288	-0.103	–	–	–	–
[3], x2 = 0.388	-0.125	–	–	–	–
[3], x2 = 0.474	-0.138	–	–	–	–
[3], x2 = 0.583	-0.136	–	–	–	–
[3], x2 = 0.685	-0.124	–	–	–	–
[3], x2 = 0.786	-0.0966	–	–	–	–
[3], x2 = 0.889	-0.0574	–	–	–	–
[3], x2 = 0.94	-0.0323	–	–	–	–
[4], φ2 = 0.039	–	–	1.4608	–	–
[4], φ2 = 0.1151	–	–	1.45666	–	–
[4], φ2 = 0.2069	–	–	1.4516	–	–
[4], φ2 = 0.3103	–	–	1.44577	–	–
[4], φ2 = 0.4171	–	–	1.4396	–	–
[4], φ2 = 0.5137	–	–	1.43392	–	–
[4], φ2 = 0.6218	–	–	1.42736	–	–
[4], φ2 = 0.6938	–	–	1.42282	–	–
[4], φ2 = 0.7916	–	–	1.41661	–	–
[4], φ2 = 0.9154	–	–	1.40849	–	–
[4], φ2 = 0.9727	–	–	1.40473	–	–
[5], x2 = 0.0364	–	–	–	–	27.39
[5], x2 = 0.0456	–	1011.05	–	1168.5	–
[5], x2 = 0.099	–	1001.97	–	1171.6	–
[5], x2 = 0.108	–	–	–	–	27.27
[5], x2 = 0.1923	–	986.13	–	1176.9	–
[5], x2 = 0.1998	–	–	–	–	27.07
[5], x2 = 0.2882	–	969.82	–	1182.1	–
[5], x2 = 0.2952	–	–	–	–	26.83
[5], x2 = 0.3925	–	952.32	–	1187.1	–
[5], x2 = 0.3998	–	–	–	–	26.52
[5], x2 = 0.4884	–	936.02	–	1191.1	–
[5], x2 = 0.4958	–	–	–	–	26.21
[5], x2 = 0.5925	–	918.32	–	1194.8	–
[5], x2 = 0.6048	–	–	–	–	25.86
[5], x2 = 0.6784	–	–	–	–	25.62
[5], x2 = 0.6907	–	901.51	–	1197.6	–
[5], x2 = 0.7796	–	–	–	–	25.3
[5], x2 = 0.7942	–	883.72	–	1199.4	–
[5], x2 = 0.8938	–	866.65	–	1201	–
[5], x2 = 0.9097	–	–	–	–	24.92
[5], x2 = 0.9481	–	857.59	–	1201.9	–
[5], x2 = 0.9707	–	–	–	–	24.76
